Values after ≈ are worked out from the molar mass of the structure shown.

Experiment [1] concerns the target Serum paraoxonase/arylesterase 1 (Homo sapiens, UniProt P27169). Kind of experiment: Inhibition of human PON1 using paraoxon as a substrate by regression analysis.
Experiment [2] deals with Bacillus subtilis. Description: Antibacterial activity against Bacillus subtilis MTCC 1789 measured after 16 hrs by CLSI based microtitre broth dilution method. It counts as functional. A general note: Broth dilution looks for growth in wells or tubes with falling amounts of substance.
For experiment [3], the system named is Staphylococcus aureus. Kind of experiment: Antibacterial activity against Staphylococcus aureus ATCC 6538P measured after 16 hrs by CLSI based microtitre broth dilution method. It counts as functional.
The test system of experiment [4] is Pseudomonas aeruginosa. Kind of experiment: Antibacterial activity against Pseudomonas aeruginosa ATCC 25668 measured after 16 hrs by CLSI based microtitre broth dilution method. It counts as functional.
Experiment [5] relates to Escherichia coli. Kind of experiment: Antibacterial activity against Escherichia coli MTCC 739 measured after 16 hrs by CLSI based microtitre broth dilution method. It counts as functional.
Experiment [6] concerns Pseudomonas aeruginosa. Description: Antibacterial activity against Pseudomonas aeruginosa assessed as cell growth inhibition measured after 24 hrs by serial broth-dilution method. It counts as functional.
Experiment [7] can be described thus: Antioxidant activity assessed as DPPH radical scavenging activity incubated for 10 mins in dark condition by spectrophotometer method. It counts as functional.
Experiment [8] deals with A549. Kind of experiment: Anticancer activity against human A549 cells assessed as cell growth inhibition measured after 72 hrs by MTT assay. The conditions noted are these: A549, 72 h. It counts as functional, cell-based.
The subject of experiment [9] is NCI-H460. Description: Anticancer activity against human NCI-H460 cells assessed as cell growth inhibition measured after 72 hrs by MTT assay. Particulars: NCI-H460, 72 h. Type of experiment: functional, cell-based. A general note: Tetrazolium assays rely on reduction of a dye to a coloured formazan, in cell work by metabolically active cells.
For experiment [10], the system named is HT-29. Kind of experiment: Anticancer activity against human HT-29 cells assessed as cell growth inhibition measured after 72 hrs by MTT assay. Type of experiment: functional, cell-based. The conditions noted are these: HT-29, 72 h.
Experiment [11] in a line: Anticancer activity against human U-87 MG cells assessed as cell growth inhibition measured after 72 hrs by MTT assay. It counts as functional, cell-based, U-87MG ATCC.
For experiment [12], the system named is Metaphire sieboldi. Kind of experiment: Anthelmintic activity against Metaphire sieboldi assessed as mean paralysing time up to 0.5% w/v. Type of experiment: functional.
In experiment [13] the test system is Staphylococcus aureus. Kind of experiment: Antibacterial activity against Staphylococcus aureus ATCC 6538 assessed as zone of inhibition at 500 ug per disk measured after 24 hrs by NCCLS based disk diffusion method. It counts as functional. Particulars: read-out: DIZ. A general note: Agar diffusion results depend on both activity and mobility in agar.
In experiment [14] the test system is Aspergillus flavus. Kind of experiment: […] activity against Aspergillus flavus assessed as cell growth inhibition measured after 24 hrs by serial broth-dilution method. Type of experiment: functional.
Experiment [15] concerns Pseudomonas aeruginosa. Kind of experiment: Antibacterial activity against Pseudomonas aeruginosa assessed as zone of inhibition measured after 24 hrs by agar well diffusion method. It counts as functional.
Experiment [16] relates to Aspergillus flavus. Kind of experiment: […] activity against Aspergillus flavus assessed as zone of inhibition measured after 24 hrs by agar well diffusion method. It counts as functional.
Experiment [17] concerns Mus musculus. Kind of experiment: Antiinflammatory activity in carrageenan induced mouse paw oedema model assessed as inhibition of paw oedema at 100 mg/kg, po pretreated with compound for 30 mins followed by carrageenan injection measured after 5 hrs relative to control. It counts as functional. More on the design: scale not given: the % may be the effect or the level left. The conditions noted are these: time 5.5 hrs.

Experiment [18] deals with Escherichia coli. Description: Antibacterial activity against Escherichia coli assessed as zone of inhibition at 25 ug/ml. Type of experiment: functional. The conditions noted are these: read-out: DIZ.
Experiment [19] can be described thus: Antibacterial activity against Xanthomonas citri assessed as zone of inhibition at 25 ug/ml. It counts as functional. The conditions noted are these: read-out: DIZ.
Experiment [20] can be described thus: Anticancer activity against human KATO III stomach cancer cell line assessed as cell growth inhibition measured after 3 days by CCK-8 assay. It counts as functional. The conditions noted are these: 72 h, time 3 day.
Experiment [21] has as its system K562. Description: Anticancer activity against human K562 cells assessed as cell growth inhibition measured after 3 days by CCK-8 assay. Type of experiment: functional. Particulars: K562, 72 h, time 3 day.
The subject of experiment [22] is SNU1. Kind of experiment: Anticancer activity against human SNU1 cells assessed as cell growth inhibition measured after 3 days by CCK-8 assay. It counts as functional. Particulars: SNU1, 72 h, time 3 day.
For experiment [23], the system named is AGS. Kind of experiment: Anticancer activity against human AGS cells assessed as cell growth inhibition measured after 3 days by CCK-8 assay. It counts as functional. Particulars: 72 h, time 3 day.
Experiment [24] concerns Bacillus subtilis. Description: Antibacterial activity against Bacillus subtilis assessed as zone of inhibition measured after 24 hrs by agar well diffusion method. Type of experiment: functional.
Experiment [25] has as its system Escherichia coli. Kind of experiment: Antibacterial activity against Escherichia coli assessed as zone of inhibition measured after 24 hrs by agar well diffusion method. It counts as functional.
A short description of experiment [26]: Antioxidant activity assessed as DPPH radical scavenging activity preincubated for 24 hrs followed by dark incubation 30 mins by UV-visible spectrophotometer method. It counts as functional.
In experiment [27] the test system is SMMC-7721. Kind of experiment: Anticancer activity against human SMMC-7721 cells assessed as cell growth inhibition measured after 72 hrs by MTT assay. Type of experiment: functional, cell-based. The conditions noted are these: SMMC-7721, 72 h.

Sequence of Serum paraoxonase/arylesterase 1 (P27169 whole entry): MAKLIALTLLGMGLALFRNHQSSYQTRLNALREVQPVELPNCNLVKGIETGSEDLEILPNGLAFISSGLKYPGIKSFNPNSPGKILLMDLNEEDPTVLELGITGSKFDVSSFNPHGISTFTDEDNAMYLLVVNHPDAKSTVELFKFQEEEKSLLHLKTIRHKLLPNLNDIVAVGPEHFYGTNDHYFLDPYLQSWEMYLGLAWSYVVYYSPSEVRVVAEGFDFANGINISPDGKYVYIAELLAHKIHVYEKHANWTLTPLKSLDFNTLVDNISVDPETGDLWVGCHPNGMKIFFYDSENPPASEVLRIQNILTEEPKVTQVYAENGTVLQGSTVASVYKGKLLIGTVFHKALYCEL

Take `Cc1c(C)c(C)c(Cn2c[n+](Cc3cc(=O)oc4cc(O)ccc34)c3ccccc32)c(C)c1C`: in experiment [1], the IC50 is 7.84 µM.
As for `O=c1oc2ccccc2cc1/C(Cn1cnc2ccccc21)=N\OCc1ccc(Cl)cc1`, the MIC was 0.95 mg/L (≈ 2.14 µM) in [2], 1.56 mg/L (≈ 3.51 µM) in experiment [3], 3.12 mg/L (≈ 7.03 µM) in experiment [4] and 3.12 mg/L (≈ 7.03 µM) in experiment [5].
In the case of `O=C(CC(Sc1nc2ccccc2[nH]1)c1ccccc1)c1cc2ccccc2oc1=O` (stereo not drawn), in experiment [6], the MIC amounted to 2200 mg/L (≈ 5160 µM). Further, the half-maximal inhibitory concentration (IC50) in [7] was determined as 35000 mg/L (≈ 82100 µM).
Turning to `O=C(CCl)n1c(-c2cc3ccccc3oc2=O)nc2ccccc21`, the half-maximal inhibitory concentration (IC50) in [8] was 0.29 µM; in experiment [9] it was 0.59 µM; in experiment [10] it was 0.57 µM; in experiment [11] it was 0.34 µM.
In the case of `O=C(Cc1cc(=O)oc2ccccc12)Nc1nc2ccccc2[nH]1`, the Time in experiment [12] is listed as 14 min.
Consider `O=c1oc2ccccc2c(Nc2nc3ccccc3[nH]2)c1[N+](=O)[O-]`, for which the zone of inhibition at 500 µg/disc in experiment [13] worked out at 23 mm.
With `O=c1oc2ccccc2c(O)c1C(Sc1nc2ccccc2[nH]1)c1ccccc1` (stereo not drawn), the minimum inhibitory concentration (MIC) in [6] and in experiment [14] was 200 mg/L (≈ 499 µM) in each case. The “diameter of the inhibition zone (DIZ)” value in experiment [15] came to 23 mm; in experiment [16] it was 18 mm.
Take `COc1ccc(N2CC(c3cc(=O)oc4cc(C)ccc34)c3nc4ccccc4n3C2)cc1` (stereo not drawn): the Activity in [17] was found to be 52.61%.
Consider `CCOC(=O)c1sc(Sc2cc3ccccc3oc2=O)c(-c2nc3ccccc3[nH]2)c1N`, for which the values for the zone of inhibition at 25 µg/mL in experiment [18] and in experiment [19] were 19 mm and 14 mm, respectively.
`CCN(CC)c1ccc2cc(-c3nc4cc(C)ccc4n3C)c(=O)oc2c1`: the GI50 in experiment [20] stood at 0.59 µM; in [21], 0.67 µM; in experiment [22], 0.12 µM; in experiment [23] it was 0.78 µM.
Regarding `O=c1oc2ccccc2c(O)c1C(Sc1nc2ccccc2[nH]1)c1ccc(O)cc1` (stereo not drawn), the MIC in experiment [14] was determined as 200 mg/L (≈ 480 µM). Besides, the “diameter of the inhibition zone (DIZ)” value in experiment [16] turned out to be 18 mm; in experiment [24], 19 mm; in experiment [25] it was 17 mm. The half-maximal inhibitory concentration (IC50) in experiment [26] was found to be 9.82 mg/L (≈ 23.6 µM).
Take `O=C(/C(Cl)=N/Nc1ccc(Cl)cc1Cl)n1c(-c2cc3ccccc3oc2=O)nc2ccccc21`: the IC50 came out at 0.25 µM in [8], 0.36 µM in experiment [9], 0.29 µM in experiment [11] and 0.22 µM in experiment [27].

The term IC50 denotes the concentration that gives 50% inhibition. As a reminder, the MIC is the lowest concentration that inhibits growth of the organism. Broadly, the GI50 is the concentration that inhibits growth by half.

The record behind these values is ChEMBL document CHEMBL5126506, “Coumarin-benzimidazole hybrids: A review of developments in medicinal chemistry” (Eur J Med Chem, 2022).
